This is an account of results in patent US4927941A, “Fluorine-containing nitroazole derivatives and radiosensitizer comprising the same” (Yasunori Nishijima & Daikin Industries Ltd., priority 1987, dated 1990).

Where only a bound is given, the exact number is not on record here.

The test system of one data set is EMT-6 tumor cells. The experiment in a line: Radiosensitization effect on tumor transplanted in animal (ER in vivo). On the set-up: species or system Balb/c mouse. To be noted: in a low concentration.
Description: To both thighs of male Balb/c mouse (8 weeks; 4 mice in a group), 10^5 of EMT-6 tumor cells were subcutaneously inoculated. After the diameter of the tumor reached about 1 cm, a solution of a compound to be examined in saline was intraperitonealy administered (200 mg/kg). After 40 minutes from the administration, X-ray was irradiated at a dose rate of 450 rad/min. for 5 minutes and then the mouse was sacrificed.
After the mouse was systemically sterilized, the tumor was taken out and the tissue was homogenated. Then, 22 ml of trypsin was added to the homogenate and stirred for 50 minutes at 37° C. The number of cells in the supernatant was counted. A predetermined amount of the cells was introduced in a plastic plate having a diameter of about 5 cm. To the plate, 5 ml of medium was added and cultured in a CO2 incubator. The plates containing the irradiated and unirradiated cells were removed from the incubator after 9 days and 10 days incubation, respectively. The cells were fixed by methanol and stained by Giemsa stain. Then, the number of colonies formed were counted.
The survival rate was calculated with using the unirradiated cells as control.
Turning to `O=[N+]([O-])c1ncn(CC(O)CF)n1` (stereo not drawn) [(13), 1-(3'-fluoro-2'-hydroxypropyl)-3-nitro-1,2,4-triazole], the “ER in vivo in comparison with comparative compounds (1) and (2)” value is listed as “comparable”.

In the next data set the test system is hypoxic cells.
Assay: not given
Particulars: versus no Misonidazole; cited from earlier work.
Take `COCC(O)Cn1ccnc1[N+](=O)[O-]` (stereo not drawn) [Misonidazole, 1-(2-Nitro-1-imidazolyl)-3-methoxy-2-propanol]: the “effectiveness as hypoxic cell sensitizer” value is “about twice as effective as when no Misonidazole is used”.

For another data set, the system named is hypoxic cells.
Assay: not given
Particulars: administered in human beings; cited from earlier work.
In the case of `COCC(O)Cn1ccnc1[N+](=O)[O-]` (stereo not drawn) [Misonidazole, 1-(2-Nitro-1-imidazolyl)-3-methoxy-2-propanol], the “sensitizing effect in human beings” value is given as “No sensitizing effect was confirmed”.

Test system in another data set: not listed separately
Put plainly: in vivo.
Settings: not given
Turning to `COCCNC(=O)C(F)(F)Cn1cnc([N+](=O)[O-])n1` [(2), 3-(3'-nitro-1',2',4'-triazol-1'-yl)-2,2-difluoropropionic acid methoxyethylamide], the LD50 (usually the dose at which mortality reaches 50%) is > 3000 mg/kg.
`O=C(NCCO)C(F)(F)Cn1cnc([N+](=O)[O-])n1` [(3), 3-(3'-nitro-1',2',4'-triazol-1'-yl)-2,2-difluoropropionic acid hydroxyethylamide] gave a 50% lethal dose (LD50) of 1600 mg/kg.
In the case of `COCC(F)Cn1cnc([N+](=O)[O-])n1` (stereo not drawn) [(7), 1-(2'-fluoro-3'-methoxypropyl)-3-nitro-1,2,4-triazole], the LD50 is > 2000 mg/kg.
With `O=[N+]([O-])c1ncn(CC(O)CF)n1` (stereo not drawn) [(13), 1-(3'-fluoro-2'-hydroxypropyl)-3-nitro-1,2,4-triazole], the 50% lethal dose (LD50) amounted to 700 mg/kg.
On the same count and under the same terms, as for `NC(=O)C(F)(F)Cn1cnc([N+](=O)[O-])n1` [(43), 3-(3'-nitro-1',2', 4'-triazol-1'-yl)-2,2-difluoropropionamide], the figure is 700 mg/kg.
For the compound `CC(C)NC(=O)C(F)(F)Cn1cnc([N+](=O)[O-])n1` [(53), 3-(3'-nitro-1', 2', 4'-triazol-1'-yl)-2,2-difluoropropionic acid isopropylamide], the LD50 was found to be 600 mg/kg.
`CC(O)CNC(=O)C(F)(F)Cn1cnc([N+](=O)[O-])n1` (stereo not drawn) [(60), 3-(3'-nitro-1', 2', 4'-triazol-1'-yl)-2,2-difluoropropionic acid isopropanolamide] returned a 50% lethal dose (LD50) of 1200 mg/kg.
Compound `NC(=O)CCNC(=O)C(F)(F)Cn1cnc([N+](=O)[O-])n1` [(62), 1-(3'-nitro-1',2',4'-triazol-1'-yl)-2,2-difluoropropionic acid 3-alanylamide] came in with an LD50 of 1500 mg/kg.
`O=[N+]([O-])c1ncn(CC(F)COCC(O)CO)n1` (stereo not drawn) [(65), 1-(2'-fluoro-4'-oxo-6',7'-dihydroxyheptyl)-3-nitro-1,2,4-triazole] displayed an LD50 of 1600 mg/kg.
